Measured values as given in patent US6727382B1, “Peroxyacids” (Unilever Patent Holdings, B.V., priority 1992, dated 2004).

Columns and labels:
[1] = Bleaching of tea stained test cloths with peroxyacid formed in situ with SDS or Coco-PAS (Example VIII); details: EDTA 2×10^−5 M, pH 10; for ΔR460* Coco-PAS: peracid 1×10^−3 mol with Coco-PAS 2×10^−3 mol in 100 ml demineralised water; for ΔR460* SDS: peracid 1×10^−3 mol with SDS 2×10^−3 mol in 100 ml demineralised water
Method: (§1) Bleaching experiments were carried out in a temperature controlled glass vessel, equipped with a magnetic stirrer, thermocouple and a pH electrode, at a constant temperature of 40° C. pH was adjusted using 0.1M NaOH.
(§2) Peracid prepared according to example I was exchanged with SDS and 1×10^−3 mol added to 100 ml demineralised water and ethylene diamine tetraacteic acid (EDTA) (2×10^−5 M) in the glass vessel. Thereafter, tea stained test cloths were immersed in the solution for 30 minutes. The liquor to cloth ratio was greater than 20:1. After rinsing with tap water, the cloths were dried in a tumble drier.
(§3) Bleaching performance was determined using a Instrumental Colour Systems Micro-match to measure the reflectance, at 460 nm, of the cloths both before and after treatment. The difference (ΔR460*) in the values gives a measure of the effectiveness of the treatment.
Example VI was repeated using materials prepared according to examples I-VI and the comparative example. Peracid (1×10^−3 mol) was added to a glass vessel containing 100 ml demineralised water, EDTA, (2×10^−5 M), and SDS or Coco-PAS (2×10^−3 mol), i.e cationic peroxyacids according to the invention were formed in-situ. The pH was adjusted to pH 10 using 0.1NaOH. The difference (ΔR460*) in the values gives a measure of the effectiveness of the bleaching performance.

[2] = Bleaching of tea stained test cloths, reflectance at 460 nm (Example VII); details: 40° C., 30 minutes, 1×10^−3 mol peracid in 100 ml demineralised water, EDTA 2×10^−5 M
Method: as §1, §2, §3

Row | Molecule | ΔR460* Coco-PAS [1] | ΔR460* SDS [1] | ΔR460* bleaching performance ([2]; pH 7.0) | ΔR460* bleaching performance ([2]; pH 8.0) | ΔR460* bleaching performance ([2]; pH 9.0) | ΔR460* bleaching performance ([2]; pH 10.0)
1 | C[N+](C)(Cc1ccccc1)Cc1ccc(C(=O)OO)cc1.Cc1ccc(S(=O)(=O)[O-])cc1 [Example II, α-Benzyl-dimethylammonium-4-peroxytoluic Acid Tosylate] | 18.9 | 21.9 | – | – | – | –
2 | α-Octyl-dimethylammonium-4-peroxytoluic Acid Tosylate [Comparison] | 7.6 | 8.0 | – | – | – | –
3 | α-Pentyl-dimethylammonium-4-peroxytoluic Acid Tosylate [Example VI] | 18.6 | 21.9 | – | – | – | –
4 | α-Butyl-dimethylammonium-4-peroxytoluic Acid Tosylate [Example V] | 21.8 | 23.7 | – | – | – | –
5 | α-Heptyl-Dimethylammonium-4-Peroxytoluic Acid Tosylate [Example IV] | – | 14.5 | – | – | – | –
6 | CS(=O)(=O)[O-].C[N+](C)(C)Cc1ccc(C(=O)OO)cc1 [Example I, α-Trimethylammonium-4-peroxytoluic Acid Methane Sulphonate] | 26.7 | 24.0 | – | – | – | –
7 | αHexyl-dimethylammonium-4-peroxytoluic Acid Tosylate [Example III] | 16.1 | 23.5 | – | – | – | –
8 | C[N+](C)(C)CCOC(=O)Oc1ccc(S(=O)(=O)[O-])cc1 [CSPC, 2-(N,N,N-trimethylammonium)ethyl-4-sulphonyl carbonate] | – | – | 20.0 | 22.0 | 20.0 | –
9 | O=C(CCCCCN1C(=O)c2ccccc2C1=O)OO [PAP] | – | – | 13.0 | 13.0 | 6.0 | 4.0
10 | CCCCCCCCC(=O)Oc1ccc(S(=O)(=O)[O-])cc1.[Na+] [SNOBS, Sodium nonoyloxybenzene sulphonate] | – | – | – | – | 7.5 | 5.0
